# Molecular target: T1, catalytic domain of human Bub1 (amino acids 704-1085) (Homo sapiens, UniProt O43683)
# T1 construct: catalytic domain of human Bub1 (amino acids 704-1085); His6 (N); made in house; host or cells: Hi5 insect cells
# Experiment: Bub1 kinase assay (TR-FRET)
# Format: biochemical
# Conditions: TR-FRET; ATP 10 μM, peptide substrate 1 μM; 60 min at 22° C.; average or median if tested more than once; read-out: Inhibition of Bub1 kinase IC50
# Procedure, shortened: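 Human Bub1 catalytic domain (704-1085, His6-tagged, Hi5-expressed, ~200 ng/mL) preincubated with compound 15 min at 22 °C, then reacted 60 min at 22 °C with 10 μM ATP and 1 μM biotinylated peptide substrate, pH 7.5. EDTA stop; TR-FRET 665/620 ratio; IC50 from 4-parameter fit, 11 concentrations in duplicate.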
# T1 sequence (O43683 704-1085): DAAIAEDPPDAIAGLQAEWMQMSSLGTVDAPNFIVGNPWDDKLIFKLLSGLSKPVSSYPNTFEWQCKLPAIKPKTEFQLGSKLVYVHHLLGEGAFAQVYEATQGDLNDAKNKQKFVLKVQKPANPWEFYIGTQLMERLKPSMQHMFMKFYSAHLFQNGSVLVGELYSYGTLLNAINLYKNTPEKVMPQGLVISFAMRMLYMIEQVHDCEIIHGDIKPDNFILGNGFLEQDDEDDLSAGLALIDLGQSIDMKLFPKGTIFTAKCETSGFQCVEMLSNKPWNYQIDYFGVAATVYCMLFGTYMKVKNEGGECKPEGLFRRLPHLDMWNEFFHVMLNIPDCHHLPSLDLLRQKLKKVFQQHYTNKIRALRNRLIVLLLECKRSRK
row,IC50 [nM],SMILES
1,3,"CN(C)C(=O)N1CC(=O)c2c([nH]c(-c3ccnc(NC(=O)[C@@H]4C[C@@H]4F)c3)c2Nc2ccccc2)C1 [Example 207, 2-[2-([(1S,2S)-2-Fluorocyclopropyl]carbonylamino)pyridin-4-yl]-N,N-dimethyl-4-oxo-3-(phenylamino)-1,4,5,7-tetrahydro-6H-pyrrolo[2,3-c]pyridine-6-carboxamide]"
2,3,"CC(=O)Nc1cc(-c2[nH]c3c(c2Nc2ccccc2)C(=O)CN(C(=O)CCS(C)(=O)=O)C3)ccn1 [Example 210, N-(4-6-[3-(Methylsulfonyl)propanoyl]-4-oxo-3-(phenylamino)-4,5,6,7-tetrahydro-1H-pyrrolo[2,3-c]pyridin-2-ylpyridin-2-yl)acetamide]"
3,3,"O=C1CN(C(=O)C2CC2)Cc2[nH]c(-c3ccnc(NC(=O)[C@@H]4C[C@@H]4F)c3)c(Nc3ccccc3)c21 [Example 212, (1S,2S)—N-4-[6-(Cyclopropylcarbonyl)-4-oxo-3-(phenylamino)-4,5,6,7-tetrahydro-1H-pyrrolo[2,3-c]pyridin-2-yl]pyridin-2-yl-2-fluorocyclopropanecarboxamide]"
4,2,CC(C)(C)C(=O)N1CC(=O)c2c([nH]c(-c3ccnc(NC(=O)[C@@H]4C[C@@H]4F)c3)c2Nc2ccccc2)C1 [Example 213]
5,3,"CC(C)S(=O)(=O)N1CC(=O)c2c([nH]c(-c3ccnc(NC(=O)[C@@H]4C[C@@H]4F)c3)c2Nc2ccccc2)C1 [Example 214, (1S,2S)-2-Fluoro-N-4-[4-oxo-3-(phenylamino)-6-(propan-2-ylsulfonyl)-4,5,6,7-tetrahydro-1H-pyrrolo[2,3-c]pyridin-2-yl]pyridin-2-ylcyclopropanecarboxamide]"
6,4,"CCOC(=O)N1CC(=O)c2c([nH]c(-c3ccnc(NC(=O)[C@@H]4C[C@@H]4F)c3)c2Nc2ccccc2)C1 [Example 215, Ethyl 2-[2-([(1S,2S)-2-fluorocyclopropyl]carbonylamino)pyridin-4-yl]-4-oxo-3-(phenylamino)-1,4,5,7-tetrahydro-6H-pyrrolo[2,3-c]pyridine-6-carboxylate]"
7,4,"CCN(CC)C(=O)N1CC(=O)c2c([nH]c(-c3ccnc(NC(=O)[C@@H]4C[C@@H]4F)c3)c2Nc2ccccc2)C1 [Example 217, N,N-Diethyl-2-[2-([(1S,2S)-2-fluorocyclopropyl]carbonylamino)pyridin-4-yl]-4-oxo-3-(phenylamino)-1,4,5,7-tetrahydro-6H-pyrrolo[2,3-c]pyridine-6-carboxamide]"
8,18,"CC(C)(C)OC(=O)N1CC(=O)c2c([nH]c(-c3ccncc3OCC(F)F)c2Nc2ccccc2)C1 [Example 220, tert-Butyl 3-anilino-2-[3-(2,2-difluoroethoxy)pyridin-4-yl]-4-oxo-1,4,5,7-tetrahydro-6H-pyrrolo[2,3-c]pyridine-6-carboxylate]"
9,104,"CC(C)(C)OC(=O)N1CC(=O)c2c([nH]c(-c3ccncc3OCC(F)(F)F)c2Nc2ccccc2)C1 [Example 221, tert-Butyl 3-anilino-4-oxo-2-[3-(2,2,2-trifluoroethoxy)pyridin-4-yl]-1,4,5,7-tetrahydro-6H-pyrrolo[2,3-c]pyridine-6-carboxylate]"
10,9,"COCCOc1cnccc1-c1[nH]c2c(c1Nc1ccccc1)C(=O)CN(C(=O)OC(C)(C)C)C2 [Example 222, tert-Butyl 3-anilino-2-[3-(2-methoxyethoxy)pyridin-4-yl]-4-oxo-1,4,5,7-tetrahydro-6H-pyrrolo[2,3-c]pyridine-6-carboxylate]"
11,1020,"O=C1CNCc2[nH]c(-c3ccncc3OCC(F)(F)F)c(Nc3ccccc3)c21 [Example 225, 3-Anilino-2-[3-(2,2,2-trifluoroethoxy)pyridin-4-yl]-1,5,6,7-tetrahydro-4H-pyrrolo[2,3-c]pyridin-4-one]"
12,72,"COCCOc1cnccc1-c1[nH]c2c(c1Nc1ccccc1)C(=O)CNC2 [Example 226, 3-anilino-2-[3-(2-methoxyethoxy)pyridin-4-yl]-1,5,6,7-tetrahydro-4H-pyrrolo[2,3-c]pyridin-4-one]"
13,163,"CC(=O)N1CC(=O)c2c([nH]c(-c3ccncc3OCC(F)(F)F)c2Nc2ccccc2)C1 [Example 229, 6-Acetyl-3-(phenylamino)-2-[3-(2,2,2-trifluoroethoxy)pyridin-4-yl]-1,5,6,7-tetrahydro-4H-pyrrolo[2,3-c]pyridin-4-one]"
14,16,"COCCOc1cnccc1-c1[nH]c2c(c1Nc1ccccc1)C(=O)CN(C(C)=O)C2 [Example 230, 6-Acetyl-2-[3-(2-methoxyethoxy)pyridin-4-yl]-3-(phenylamino)-1,5,6,7-tetrahydro-4H-pyrrolo[2,3-c]pyridin-4-one]"

# The remaining lines, values behind:
row,SMILES,IC50 [nM]
1,"O=C1CN(S(=O)(=O)c2cnc[nH]2)Cc2[nH]c(-c3ccnc(NC(=O)[C@@H]4C[C@@H]4F)c3)c(Nc3ccccc3)c21 [Example 204, (1S,2S)-2-Fluoro-N-4-[6-(1H-imidazol-5-ylsulfonyl)-4-oxo-3-(phenylamino)-4,5,6,7-tetrahydro-1H-pyrrolo[2,3-c]pyridin-2-yl]pyridin-2-ylcyclopropanecarboxamide]",3
2,"COC(=O)N1CC(=O)c2c([nH]c(-c3ccnc(NC(=O)[C@@H]4C[C@@H]4F)c3)c2Nc2ccccc2)C1 [Example 205, Methyl 2-[2-([(1S,2S)-2-fluorocyclopropyl]carbonylamino)pyridin-4-yl]-4-oxo-3-(phenylamino)-1,4,5,7-tetrahydro-6H-pyrrolo[2,3-c]pyridine-6-carboxylate]",3
3,"CNC(=O)N1CC(=O)c2c([nH]c(-c3ccnc(NC(=O)[C@@H]4C[C@@H]4F)c3)c2Nc2ccccc2)C1 [Example 206, 2-[2-([(1S,2S)-2-Fluorocyclopropyl]carbonylamino)pyridin-4-yl]-N-methyl-4-oxo-3-(phenylamino)-1,4,5,7-tetrahydro-6H-pyrrolo[2,3-c]pyridine-6-carboxamide]",4
4,"CCNC(=O)N1CC(=O)c2c([nH]c(-c3ccnc(NC(=O)[C@@H]4C[C@@H]4F)c3)c2Nc2ccccc2)C1 [Example 208, N-Ethyl-2-[2-([(1S,2S)-2-fluorocyclopropyl]carbonylamino)pyridin-4-yl]-4-oxo-3-(phenylamino)-1,4,5,7-tetrahydro-6H-pyrrolo[2,3-c]pyridine-6-carboxamide]",5
5,"CN1CCN(C(=O)N2CC(=O)c3c([nH]c(-c4ccnc(NC(=O)[C@@H]5C[C@@H]5F)c4)c3Nc3ccccc3)C2)CC1 [Example 209, (1S,2S)-2-Fluoro-N-(4-6-[(4-methylpiperazin-1-yl)carbonyl]4-oxo-3-(phenylamino)-4,5,6,7-tetrahydro-1H-pyrrolo[2,3-c]pyridin-2-ylpyridin-2-yl)cyclopropanecarboxamide]",7
6,"CC(=O)Nc1cc(-c2[nH]c3c(c2Nc2ccccc2)C(=O)CN(C(=O)CCF)C3)ccn1 [Example 211, N-4-[6-(3-Fluoropropanoyl)-4-oxo-3-(phenylamino)-4,5,6,7-tetrahydro-1H-pyrrolo[2,3-c]pyridin-2-yl]pyridin-2-ylacetamide]",4
7,"CC(C)OC(=O)N1CC(=O)c2c([nH]c(-c3ccnc(NC(=O)[C@@H]4C[C@@H]4F)c3)c2Nc2ccccc2)C1 [Example 216, Propan-2-yl 2-[2-([(1S,2S)-2-fluorocyclopropyl]carbonylamino)pyridin-4-yl]-4-oxo-3-(phenylamino)-1,4,5,7-tetrahydro-6H-pyrrolo[2,3-c]pyridine-6-carboxylate]",6
8,"CC(=O)Nc1cc(-c2[nH]c3c(c2Nc2ccccc2)C(=O)CN(C(=O)CC(C)(C)C(F)(F)F)C3)ccn1 [Example 219, N-{4-[3-Anilino-4-oxo-6-(4,4,4-trifluoro-3,3-dimethylbutanoyl)-4,5,6,7-tetrahydro-1H-pyrrolo[2,3-c]pyridin-2-yl]pyridin-2-yl}acetamide]",22
9,"CC(C)(C)OC(=O)N1CC(=O)c2c([nH]c(-c3ccncc3OCC3CC3)c2Nc2ccccc2)C1 [Example 223, tert-Butyl 3-anilino-2-[3-(cyclopropylmethoxy)pyridin-4-yl]-4-oxo-1,4,5,7-tetrahydro-6H-pyrrolo[2,3-c]pyridine-6-carboxylate]",14
10,"O=C1CNCc2[nH]c(-c3ccncc3OCC(F)F)c(Nc3ccccc3)c21 [Example 224, 3-anilino-2-[3-(2,2-difluoroethoxy)pyridin-4-yl]-1,5,6,7-tetrahydro-4H-pyrrolo[2,3-c]pyridin-4-one]",222
11,"O=C1CNCc2[nH]c(-c3ccncc3OCC3CC3)c(Nc3ccccc3)c21 [Example 227, 3-anilino-2-[3-(cyclopropylmethoxy)pyridin-4-yl]-1,5,6,7-tetrahydro-4H-pyrrolo[2,3-c]pyridin-4-one]",140
12,"CC(=O)N1CC(=O)c2c([nH]c(-c3ccncc3OCC(F)F)c2Nc2ccccc2)C1 [Example 228, 6-Acetyl-3-anilino-2-[3-(2,2-difluoroethoxy)pyridin-4-yl]-1,5,6,7-tetrahydro-4H-pyrrolo[2,3-c]pyridin-4-one]",33
13,"CC(=O)N1CC(=O)c2c([nH]c(-c3ccncc3OCC3CC3)c2Nc2ccccc2)C1 [Example 231, 6-Acetyl-2-[3-(cyclopropylmethoxy)pyridin-4-yl]-3-(phenylamino)-1,5,6,7-tetrahydro-4H-pyrrolo[2,3-c]pyridin-4-one]",40
14,"CS(=O)(=O)N1CC(=O)c2c([nH]c(-c3ccncc3OCC(F)F)c2Nc2ccccc2)C1 [Example 232, 3-Anilino-2-[3-(2,2-difluoroethoxy)pyridin-4-yl]-6-(methylsulfonyl)-1,5,6,7-tetrahydro-4H-pyrrolo[2,3-c]pyridin-4-one]",12
15,"CS(=O)(=O)N1CC(=O)c2c([nH]c(-c3ccncc3OCC(F)(F)F)c2Nc2ccccc2)C1 [Example 233, 6-(Methylsulfonyl)-3-(phenylamino)-2-[3-(2,2,2-trifluoroethoxy)pyridin-4-yl]-1,5,6,7-tetrahydro-4H-pyrrolo[2,3-c]pyridin-4-one]",36

# From patent US20200216439A1, “HETERO-1,5,6,7-TETRAHYDRO-4H-INDOL-4-ONES” (BAYER PHARMA AKTIENGESELLSCHAFT, priority 2015, published 2020)
